Columns and labels:
[1] = test system: IFN-gamma-secreting cells (PBMC); test: Ex vivo ELISPOT, PBMC stimulated with plain (non-complexed) peptide; format: cell-based, human; conditions: PBMC 3 × 10^5 cells/well
Method: The term “ELISPOT” is used herein, for purposes of the specification and claims, to mean an adaptation of ELISA in which cells are placed over antibodies or antigens attached to a plastic surface. The antigen or antibody traps the cells' secreted products, which can then be detected by using an enzyme-coupled antibody that cleaves a preferably colorless substrate to make a localized colored spot.
In another embodiment, experiments were conducted with the E75 or Telomerase peptides+HLA beads in ex vivo ELISPOT assays run in the absence of stimulation (i.e. culture medium) or with plain or non-complexed E75 or Telomerase peptides. […] These responses have been reproduced in a number of assays using peripheral blood samples from prostate and breast cancer patients. The beads need not be made by DYNAL Biotech. Another biochemical manufacturer—such as BD Biosciences, may produce them.
In another embodiment, experiments were conducted with the E75 or Telomerase peptides+HLA beads in ex vivo ELISPOT assays run with negative control peptides.

[2] = test system: IFN-gamma-secreting cells (PBMC); test: Ex vivo ELISPOT, PBMC stimulated with artificial APC DYNAL beads + [MHC + peptide]; format: cell-based, human

| Substance | ELISPOT spots [1] [spots] | ELISPOT spots ([2]; 1 × 10^5 beads/well, PBMC 1 × 10^5 cells/well) [spots] | ELISPOT spots ([2]; 1 × 10^5 beads/well, PBMC 2 × 10^5 cells/well) [spots] | ELISPOT spots ([2]; 1 × 10^5 beads/well, PBMC 3 × 10^5 cells/well) [spots] | ELISPOT spots ([2]; 5 × 10^5 beads/well, PBMC 1 × 10^5 cells/well) [spots] | ELISPOT spots ([2]; 5 × 10^5 beads/well, PBMC 2 × 10^5 cells/well) [spots] | ELISPOT spots ([2]; 5 × 10^5 beads/well, PBMC 3 × 10^5 cells/well) [spots] |
| --- | --- | --- | --- | --- | --- | --- | --- |
| NH2-RIAWARTEL-COOH (H-RIAWARTEL-OH) [Peptide E37, negative control peptide] | 1 |  |  |  |  |  |  |
| E37-ve: DYNAL beads + MHC + E37 negative control peptide (RIAWARTEL) [Peptide E37-ve] |  | 0 | 6 | 20 | 0 | 3 | 8 |

From patent publication US8133691B2, “Stable quantitation and detection of immune response levels with non-zero background peptides” (The Henry M. Jackson Foundation for the Advancement of …, priority 2005, dated 2012)
